Data taken from EP0769966B1, “BIOTIN COMPOUNDS FOR TARGETTING TUMORS AND SITES OF INFECTION” (priority 1994, dated 1995).

Legend:
avidin = avidin (Gallus gallus, UniProt P02701); assay: Competitive binding of F-18 labeled biotin analogs to avidin vs. unlabeled d-biotin
Procedure: The two biotin derivatives were evaluated for binding to avidin in the presence of varying concentrations of unlabeled d-biotin as described in Example 3.
A preliminary measure of the binding characteristics of the fluoro analogs of biotin were performed. The binding of these novel F-18 labeled biotin analogs to avidin was evaluated by measuring the binding of F-18 labeled biotin analogs to avidin in the presence of varying concentrations of unlabeled d-biotin. Serial dilutions of d-biotin were prepared in phopshate buffered saline pH 7.4 (PBS). A fixed quantity of the no-carrier added F-18 labeled biotin 1 or 2 (10- 100µCi) were mixed with each d-biotin dilution so that the range of concentrations of cold biotin were 3 orders of magnitude greater and less than the concentration of avidin ([…]). A 200 µl aliquot of the F-18 biotin/cold biotin solution was added to 200 µl of avidin in PBS. The solution was vortexed and allowed to incubate for 1 hour after which time a 5 µl aliquot of the solution was analysed by instant thin layer chromatography (Gelman ILTC-SG) using 0.1 M acetate buffer pH 6.0. In this chromatographic system the F-18 biotin analogs bound to avidin origin while the unbound F-18-biotin analogs move to the solvent front. Percent binding of F-18 biotin analog was calculated as [(counts at origin/total counts)* 100]. For each F-18-biotin analog potential impurities remaining at the origin were determined and the results of binding corrected accordingly.

in vivo = type: in vivo, male Sprague-Dawley rats; conditions: rat, in vivo, iv
Procedure: (§1) A clinical isolate of E. Coli was stored at -70°C in a freezing media containing 20% glycerol and 80% dextrose phosphate until use. Aliquots of bacteria were defrosted and colony counts performed on serial dilutions grown overnight on BBL Brucella agar plates. Based on the colony count, freshly thawed bacteria suspensions were washed and diluted with saline to a final concentration of […]. Aliquots (0.1 ml) of bacterial suspensions (8 x 10^9 organisms/ml) were injected into the right thigh muscle of 48 male Sprague-Dawley rats (125-150 g, Charles River Breeding Laboratories, Burlington, MD). Twenty-four rats were used for each labeled biotin compound. Twenty-four hours after injection, swelling in the right thigh readily appeared, and 24 rats each received 1.67 mg of avidin in saline via the tail vein. […] Rats were sacrificed at 5 and 60 min. post-injection, six rats per time point. Blood samples were obtained by cardiac puncture. Syringes were weighed before and after injection to determine the volume delivered. The activity per unit volume was obtained from standards. A total of eleven different tissues were excised, weighed, and counted. These tissues included blood; bone; lung; liver; adrenal; spleen; kidneys; heart; muscle (thigh); teste; and infected muscle (thigh). The excised tissues were blotted, weighed, and counted in a scintillation well counter. The raw counts were decay corrected. The results were expressed as percent injected dose per gram, and infection-to-normal muscle ratios (mean ± s.d.). The biodistribution results were evaluated by analysis of variance (one-way ANOVA). The effect of avidin […] on biodistribution was evaluated by student t-test.

E. coli infected rats = assay: in vivo; type: in vivo, male Sprague-Dawley rats; conditions: for Infected to normal tissue ratio, Norm mus: infection/normal muscle
Procedure: as §1

[1] = Without Avidin, 60 Min., listed as 18F-biotin1
[2] = Without Avidin, 60 Min., listed as 18F-labeled biotin 1

Chain of avidin (P02701 25-152): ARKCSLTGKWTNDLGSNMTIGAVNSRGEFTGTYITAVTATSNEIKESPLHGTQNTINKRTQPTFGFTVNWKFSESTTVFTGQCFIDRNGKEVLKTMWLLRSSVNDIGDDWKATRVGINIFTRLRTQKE

SMILES: O=C(CCCC[C@@H]1SC[C@@H]2NC(=O)N[C@@H]21)NCCC[18F] [Biotin 1]
- binding to avidin (avidin; in the presence of varying concentrations of unlabeled d-biotin): bind to avidin and could be displaced by cold d-biotin
- Bmax (avidin; scatchard transformation of displacement curve, cold d-biotin): 5.57 x 10 ^-16 M
- tissue uptake at 5 min (in vivo; Tissue distribution, Adrenal): 1 ± 0.2 %ID/g
- tissue uptake at 1 h (in vivo; Tissue distribution, Adrenal): 0.09 ± 0.02 %ID/g
- tissue uptake at 5 min (in vivo; Tissue distribution, Blood): 1.07 ± 0.31 %ID/g
- tissue uptake at 1 h (in vivo; Tissue distribution, Blood): 0.14 ± 0.02 %ID/g
- tissue uptake at 5 min (in vivo; Tissue distribution, Bone): 1.1 ± 0.16 %ID/g
- tissue uptake at 1 h (in vivo; Tissue distribution, Bone): 2.94 ± 0.37 %ID/g
- tissue uptake at 5 min (in vivo; Tissue distribution, Heart): 1 ± 0.34 %ID/g
- tissue uptake at 1 h (in vivo; Tissue distribution, Heart): 0.14 ± 0.02 %ID/g
- tissue uptake at 5 min (in vivo; Tissue distribution, Inf mus): 1.22 ± 0.36 %ID/g
- tissue uptake at 1 h (in vivo; Tissue distribution, Inf mus): 0.43 ± 0.1 %ID/g
- tissue uptake at 5 min (in vivo; Tissue distribution, Kidney): 4.78 ± 0.8 %ID/g
- tissue uptake at 1 h (in vivo; Tissue distribution, Kidney): 0.23 ± 0.05 %ID/g
- tissue uptake at 5 min (in vivo; Tissue distribution, Liver): 1.39 ± 0.16 %ID/g
- tissue uptake at 1 h (in vivo; Tissue distribution, Liver): 0.13 ± 0.03 %ID/g
- tissue uptake at 5 min (in vivo; Tissue distribution, Lung): 1.21 ± 0.13 %ID/g
- tissue uptake at 1 h (in vivo; Tissue distribution, Lung): 0.11 ± 0.02 %ID/g
- tissue uptake at 5 min (in vivo; Tissue distribution, Norm mus): 0.83 ± 0.09 %ID/g
- tissue uptake at 1 h (in vivo; Tissue distribution, Norm mus): 0.078 ± 0.02 %ID/g
- tissue uptake at 5 min (in vivo; Tissue distribution, Spleen): 1.4 ± 0.3 %ID/g
- tissue uptake at 1 h (in vivo; Tissue distribution, Spleen): 0.14 ± 0.03 %ID/g
- tissue uptake at 5 min (in vivo; Tissue distribution, Teste): 0.57 ± 0.02 %ID/g
- tissue uptake at 1 h (in vivo; Tissue distribution, Teste): 0.16 ± 0.03 %ID/g
- tissue uptake at 1 h (in vivo; ^18F bone uptake (defluorination in vivo)): 2.94 ± 0.37 %ID/g
- Infected to normal tissue ratio, Adrenal (E. coli infected rats; With Avidin, 5 Min.): 1.20±0.22
- Infected to normal tissue ratio, Blood (E. coli infected rats; With Avidin, 5 Min.): 0.90±0.14
- Infected to normal tissue ratio, Heart (E. coli infected rats; With Avidin, 5 Min.): 1.08±0.18
- Infected to normal tissue ratio, Kidney (E. coli infected rats; With Avidin, 5 Min.): 0.28±0.06
- Infected to normal tissue ratio, Liver (E. coli infected rats; With Avidin, 5 Min.): 0.83±0.16
- Infected to normal tissue ratio, Lung (E. coli infected rats; With Avidin, 5 Min.): 1.06±0.30
- Infected to normal tissue ratio, Spleen (E. coli infected rats; With Avidin, 5 Min.): 0.64±0.11
- Infected to normal tissue ratio, Teste (E. coli infected rats; With Avidin, 5 Min.): 2.00±0.37
- Infected to normal tissue ratio, bone (E. coli infected rats; With Avidin, 5 Min.): 0.90±0.18
- Infected to normal tissue ratio, Norm mus (E. coli infected rats; With Avidin, 5 Min.): 1.24±0.20
- Infected to normal tissue ratio, Adrenal (E. coli infected rats; With Avidin, 60 Min.): 5.74±1.14
- Infected to normal tissue ratio, Blood (E. coli infected rats; With Avidin, 60 Min.): 3.75±0.75
- Infected to normal tissue ratio, Heart (E. coli infected rats; With Avidin, 60 Min.): 7.59±1.34
- Infected to normal tissue ratio, Kidney (E. coli infected rats; With Avidin, 60 Min.): 2.04±0.35
- Infected to normal tissue ratio, Liver (E. coli infected rats; With Avidin, 60 Min.): 4.05±0.65
- Infected to normal tissue ratio, Lung (E. coli infected rats; With Avidin, 60 Min.): 4.83±0.91
- Infected to normal tissue ratio, Spleen (E. coli infected rats; With Avidin, 60 Min.): 3.34±0.72
- Infected to normal tissue ratio, Teste (E. coli infected rats; With Avidin, 60 Min.): 3.35±0.56
- Infected to normal tissue ratio, bone (E. coli infected rats; With Avidin, 60 Min.): 0.28±0.07
- Infected to normal tissue ratio, Norm mus (E. coli infected rats; With Avidin, 60 Min.): 6.39± 0.96
- Infected to normal tissue ratio, Norm mus (E. coli infected rats; With Avidin, 60 Min., listed as 18F-labeled biotin 1): 6.39±0.96
- Infected to normal tissue ratio, Adrenal (E. coli infected rats; Without Avidin, 5 Min.): 1.06±0.24
- Infected to normal tissue ratio, Blood (E. coli infected rats; Without Avidin, 5 Min.): 1.30±0.86
- Infected to normal tissue ratio, Heart (E. coli infected rats; Without Avidin, 5 Min.): 1.21±0.26
- Infected to normal tissue ratio, Kidney (E. coli infected rats; Without Avidin, 5 Min.): 0.26±0.05
- Infected to normal tissue ratio, Liver (E. coli infected rats; Without Avidin, 5 Min.): 0.89±0.25
- Infected to normal tissue ratio, Lung (E. coli infected rats; Without Avidin, 5 Min.): 1.00±0.23
- Infected to normal tissue ratio, Spleen (E. coli infected rats; Without Avidin, 5 Min.): 0.94±0.49
- Infected to normal tissue ratio, Teste (E. coli infected rats; Without Avidin, 5 Min.): 2.14±0.60
- Infected to normal tissue ratio, bone (E. coli infected rats; Without Avidin, 5 Min.): 1.06±0.33
- Infected to normal tissue ratio, Norm mus (E. coli infected rats; Without Avidin, 5 Min.): 1.54±0.69
- Infected to normal tissue ratio, Adrenal (E. coli infected rats; Without Avidin, 60 Min.): 5.20±1.20
- Infected to normal tissue ratio, Heart (E. coli infected rats; Without Avidin, 60 Min.): 6.21±0.57
- Infected to normal tissue ratio, Lung (E. coli infected rats; Without Avidin, 60 Min.): 4.21±0.69
- Infected to normal tissue ratio, Spleen (E. coli infected rats; Without Avidin, 60 Min.): 2.98±0.30
- Infected to normal tissue ratio, Teste (E. coli infected rats; Without Avidin, 60 Min.): 2.87±0.50
- Infected to normal tissue ratio, bone (E. coli infected rats; Without Avidin, 60 Min.): 0.16±0.04
- Infected to normal tissue ratio, Norm mus (E. coli infected rats; Without Avidin, 60 Min.): 6.08 ± 1.12
- Infected to normal tissue ratio, Norm mus (E. coli infected rats; Without Avidin, 60 Min., listed as 18F-Biotin 1): 6.1±1.1
- Infected to normal tissue ratio, Norm mus (E. coli infected rats; [1]): 6.1
- Infected to normal tissue ratio, Norm mus (E. coli infected rats; [2]): 6.08±1.12
- Infected to normal tissue ratio, Norm mus (E. coli infected rats; Without Avidin, 60 Min., listed as biotin 1): 6.08± 1.12
- Infected to normal tissue ratio, Blood (E. coli infected rats; [1]): 3.1
- Infected to normal tissue ratio, Kidney (E. coli infected rats; [1]): 2.0
- Infected to normal tissue ratio, Liver (E. coli infected rats; [1]): 3.5
- Infected to normal tissue ratio, Blood (E. coli infected rats; [2]): 3.09±0.54
- Infected to normal tissue ratio, Kidney (E. coli infected rats; [2]): 1.96±0.24
- Infected to normal tissue ratio, Liver (E. coli infected rats; [2]): 3.48±0.67
- accumulation in kidney relative to blood (E. coli infected rats; rat, in vivo, 5 min): 4.5 fold
- Tissue distribution, Adrenal (E. coli infected rats; rat, in vivo, iv, 5 min): 0.85±0.13 percent injected dose per gram
- Tissue distribution, Blood (E. coli infected rats; rat, in vivo, iv, 5 min): 1.13±0.11 percent injected dose per gram
- Tissue distribution, Bone (E. coli infected rats; rat, in vivo, iv, 5 min): 1.19±0.23 percent injected dose per gram
- Tissue distribution, Heart (E. coli infected rats; rat, in vivo, iv, 5 min): 0.99±0.12 percent injected dose per gram
- Tissue distribution, Inf mus (E. coli infected rats; rat, in vivo, iv, 5 min): 0.99±0.11 percent injected dose per gram
- Tissue distribution, Kidney (E. coli infected rats; rat, in vivo, iv, 5 min): 4.01±0.77 percent injected dose per gram
- Tissue distribution, Liver (E. coli infected rats; rat, in vivo, iv, 5 min): 1.29±0.17 percent injected dose per gram
- Tissue distribution, Norm mus (E. coli infected rats; rat, in vivo, iv, 5 min): 0.82±0.12 percent injected dose per gram
- Tissue distribution, Spleen (E. coli infected rats; rat, in vivo, iv, 5 min): 1.52±0.32 percent injected dose per gram
- Tissue distribution, Teste (E. coli infected rats; rat, in vivo, iv, 5 min): 0.50±0.11 percent injected dose per gram
- Tissue distribution, Blood (E. coli infected rats; rat, in vivo, iv, 1 h): 0.19±0.04 percent injected dose per gram
- Tissue distribution, Bone (E. coli infected rats; rat, in vivo, iv, 1 h): 2.29±0.14 percent injected dose per gram
- Tissue distribution, Inf mus (E. coli infected rats; rat, in vivo, iv, 1 h): 0.65±0.14 percent injected dose per gram
- Tissue distribution, Kidney (E. coli infected rats; rat, in vivo, iv, 1 h): 0.32±0.04 percent injected dose per gram
- Tissue distribution, Norm mus (E. coli infected rats; rat, in vivo, iv, 1 h): 0.10±0.02 percent injected dose per gram
- Tissue distribution, Spleen (E. coli infected rats; rat, in vivo, iv, 1 h): 0.19±0.0 percent injected dose per gram
- Tissue distribution, Teste (E. coli infected rats; rat, in vivo, iv, 1 h): 0.19±0.04 percent injected dose per gram
